Where two headings read alike, the source gives them in different places.
Columns and labels:
[1] = system: FluV-A; assay: microbe, parasite or virus in culture; type: cell-based, influenza virus A/Ishikawa/7/82 (H3N2)
[2] = system: RSV; assay: microbe, parasite or virus in culture; type: cell-based, RSV Long strain (type-A); conditions: human respiratory syncytial virus
[3] = system: MLSV; assay: microbe, parasite or virus in culture; type: cell-based, Measles virus (MLSV) Edmonston strain; conditions: Measles morbillivirus
[4] = system: FluV-B; assay: MTT antiviral assay, FluV-B in MDCK cells; type: cell-based, influenza virus B/Singapore/222/79; conditions: influenza B virus, read-out: EC50 FluV-B (Singapore)
[5] = system: RSV-A (FM-58-8); assay: microbe, parasite or virus in culture; type: cell-based, RSV FM-58-8 (type-A); conditions: human respiratory syncytial virus; Table 3; fresh isolate; ^b data from one experiment
[6] = system: RSV-B (SM61-48); assay: microbe, parasite or virus in culture; type: cell-based, RSV SM-61-48 (type-B); conditions: human respiratory syncytial virus; Table 3; fresh isolate; ^b data from one experiment
[7] = system: MPSV; assay: MTT antiviral assay, mumps virus in HMV-2 cells; type: cell-based, mumps virus (MPSV) ECXH-3 strain; conditions: Mumps orthorubulavirus, HMV-2, read-out: EC50 MPSV (EXCH-3)
[8] = system: PFluV-2; assay: MTT antiviral assay, parainfluenzavirus type 2 in HMV-2 cells; type: cell-based, Greer strain; conditions: Table 3, average of 3 to 4 independent experiments, read-out: EC50 PFluV-2 (Greer)
[9] = system: PFluV-3; assay: MTT antiviral assay, parainfluenzavirus type 3 in Vero cells; type: cell-based, C243 strain; conditions: Table 3, average of 3 to 4 independent experiments, read-out: EC50 PFluV-3 (C243)
[10] = system: HMV-2 cells; conditions: read-out: Cytotoxicity IC50 HMV-2, Table 3
[11] = in vitro; conditions: dog, mdck
[12] = in vitro; conditions: human, hep-2 cells
[13] = in vitro; conditions: human, hmv-2 cells
[14] = in vitro; conditions: monkey, vero cells, Cytotoxicity IC50 Vero, Table 3
[15] = viable cell counting (parentheses)

SMILES: NC(=O)c1ncn([C@@H]2O[C@H](CO)[C@@H](O)[C@H]2O)n1 [Ribavirin]
- EC50 ([1]; Ishikawa, read-out: EC50 FluV-A (Ishikawa)): 3.7 µM
- EC50 ([1]; MDCK, read-out: Antiviral activity, EC50 FluV-A): 8.7 µM
- EC50 ([2]; Table 2, read-out: Antiviral activity, EC50 RSV): 4.7 µM
- EC50 ([2]; Table 3, average of 3 to 4 independent experiments, read-out: EC50 RSV-A (Long)): 4.7 µM
- EC50 ([3]; HMV-2, read-out: Antiviral activity, EC50 MLSV): 5.2 µM
- EC50 ([3]; HMV-2, read-out: EC50 MLSV (Edmonston)): 5.2 µM
- EC50 [4]: 5.1 µM
- EC50 [5]: 3.5 µM
- EC50 [6]: 1.6 µM
- EC50 [7]: 3.4 µM
- EC50 [8]: 8.9 µM
- EC50 [9]: 17.2 µM
- CC50 ([10]; MTT method): > 100 µM
- CC50 [10, 15]: > 100 µM
- CC50 ([11]; Cytotoxicity IC50 MDCK, Table 3, MTT method): > 200 µM
- CC50 ([11]; Cytotoxicity IC50 MDCK, Table 3, viable cell counting (parentheses)): > 200 µM
- CC50 ([11]; Cytotoxicity, IC50 MDCK, Table 2): > 100 µM
- CC50 ([12]; Cytotoxicity IC50 HEp-2, Table 3, MTT method): 52.7 µM
- CC50 ([12]; Cytotoxicity IC50 HEp-2, Table 3, viable cell counting (parentheses)): > 200 µM
- CC50 ([12]; Cytotoxicity, IC50 HEp-2, Table 2): > 50 µM
- CC50 [13]: > 100 µM
- CC50 ([14]; MTT method): 100 µM
- CC50 [14, 15]: > 200 µM

Source: patent US5824706A (priority 1995, dated 1998)
